Like-named read-outs stand apart in the source and are kept apart here.
Tests used:
[1] = tested on: Shionogi mouse mammary carcinoma cells; experiment: Androgenic/antiandrogenic activity: inhibition of DHT-stimulated Shionogi cell number; type: cell-based; settings: DHT-stimulated Shionogi cell number, agonist reported when compound stimulates the cells
[2] = tested on: rat prostate, seminal vesicle, levator ani muscle; experiment: Systemic androgenic activity in orchidectomized immature male rats; type: in vivo; settings: for change in vivo at 0.2 mg: 168 h, 0.2 mg/animal daily 7 days
Excerpt: Column 7 represents the % of androgenic efficacy in rat prostate, expressed in percentage of stimulation:
W is the weight of the prostate.
Column 8 represents the % of androgenic efficacy in rat seminal vesicle, expressed in percentage of stimulation:
W is the weight of the seminal vesicle.
Column 9 represents the % of androgenic efficacy in rat levator ani muscle, expressed in percentage of stimulation: […]
Immature male rats (Crl:CD(SD)Br) 22 to 24-day old were obtained from Charles-River, Inc. (St-Constant, Quebec, Canada) and housed up to 5 per cage in plastic bins in a temperature (23±1° C.)— and light (12 h light/day, lights on at 7h15)— controlled environment. The rats were fed rodent chow and tap water ad libitum. The day following their arrival, the animals were orchidectomized (CX) under Isoflurane anesthesia via scrotal route and randomly assigned to groups of 5 animals.
To evaluate the antiandrogenic activity, tested compounds were administered subcutaneously or orally once daily at a dose of 0.5 mg/animal for antiandrogenitic activity or 0.2 mg/animal for androgenic activity for 7 days (SD 1 to 7). Compounds were solubilized (when possible) in dimethylsulfoxide (DMSO, 10% final concentration) and administered as suspension in 0.4% methylcellulose. […] One group of animals received the antiandrogen Flutamide as reference. The animals were killed by cervical dislocation under isoflurane anesthesia on the 8th morning following castration. The ventral prostate and seminal vesicles were rapidly dissected and weighed.
3. Calculations and Statistical Analysis
W is the weight of the prostate, the seminal vesicle or levator ani.

Human Androgen Receptor = target: T1, Human Androgen Receptor (Homo sapiens, UniProt P10275); experiment: Androgen receptor binding assay ([3H]R1881, HAP) in cytosol of HEK-293 cells transfected with hAR; settings: Table 3; relative to R1881 = 100, transfected cells
T1 sequence (P10275 1-920): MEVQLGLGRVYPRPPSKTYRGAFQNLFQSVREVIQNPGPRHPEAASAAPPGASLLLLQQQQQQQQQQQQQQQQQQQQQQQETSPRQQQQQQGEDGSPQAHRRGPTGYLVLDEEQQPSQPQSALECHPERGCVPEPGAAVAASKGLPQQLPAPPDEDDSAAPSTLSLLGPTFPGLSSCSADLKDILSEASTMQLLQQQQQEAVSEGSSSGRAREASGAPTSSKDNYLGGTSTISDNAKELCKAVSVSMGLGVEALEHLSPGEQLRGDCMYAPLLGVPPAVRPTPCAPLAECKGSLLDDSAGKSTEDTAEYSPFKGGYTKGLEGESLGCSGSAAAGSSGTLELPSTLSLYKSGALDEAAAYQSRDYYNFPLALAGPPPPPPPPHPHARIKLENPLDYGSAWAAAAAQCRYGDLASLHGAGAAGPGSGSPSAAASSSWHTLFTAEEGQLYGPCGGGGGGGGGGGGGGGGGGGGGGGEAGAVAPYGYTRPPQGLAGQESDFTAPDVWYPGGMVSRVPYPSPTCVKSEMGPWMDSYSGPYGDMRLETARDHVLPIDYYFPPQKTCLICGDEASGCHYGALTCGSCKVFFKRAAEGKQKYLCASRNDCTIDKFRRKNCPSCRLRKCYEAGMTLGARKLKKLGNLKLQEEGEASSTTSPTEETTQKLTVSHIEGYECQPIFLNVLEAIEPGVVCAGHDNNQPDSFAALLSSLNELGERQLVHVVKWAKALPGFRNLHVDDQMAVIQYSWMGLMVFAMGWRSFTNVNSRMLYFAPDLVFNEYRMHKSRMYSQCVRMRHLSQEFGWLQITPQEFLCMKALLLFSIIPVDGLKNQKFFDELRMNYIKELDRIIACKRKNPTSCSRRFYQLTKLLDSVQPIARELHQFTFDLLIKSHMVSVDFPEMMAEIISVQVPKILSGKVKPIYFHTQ

[3] = tested on: rat prostate, seminal vesicle, levator ani muscle; experiment: Systemic antiandrogenic activity in orchidectomized immature male rats with DHT implant; type: in vivo; settings: Table 3, rat +DHT, 0.5 mg/animal daily 7 days
[4] = Mus musculus, read-out: Shionogi Antiandrogenic Activity IC50, Table 3
[5] = sc, Table 3, s.c (marked in prostate cell), read-out: % Stimulation Lev.Ani
[6] = sc, Table 3, s.c (marked in prostate cell), read-out: % Stimulation SV
[7] = sc, Table 3, s.c, read-out: % Stimulation Prostate
[8] = po, Table 3, p.o (marked in prostate cell), read-out: % Stimulation Lev.Ani
[9] = po, Table 3, p.o (marked in prostate cell), read-out: % Stimulation SV
[10] = po, Table 3, p.o, read-out: % Stimulation Prostate
[11] = Table 3, s.c. or p.o (route not marked)

`Cc1c(N2C(=O)C(C)(C)N(CCCOc3ccc(CNC(C)C)cc3)C2=S)ccc(C#N)c1Cl` [EM-7198] was tested, and the IC50 [1, 4] was 10 nM, the change in vivo at 0.2 mg [2, 5] was 182% and the change in vivo at 0.2 mg [2, 6] was 106%. For the same compound, the change in vivo at 0.2 mg [2, 7] was 65%, the “Human Androgen Receptor Binding (%) RBA R1881 = 100” value (Human Androgen Receptor) was 44% and the “% Inhibition Prostate” value ([3]; s.c) was 15 s.c %.
`Cc1c(N2C(=O)C(C)(C)N(CCCOc3ccc(CN(C)C)cc3)C2=S)ccc(C#N)c1Cl` [EM-7298] was tested, and the IC50 [1, 4] was 8.2 nM, the change in vivo at 0.2 mg [2, 5] was 103% and the change in vivo at 0.2 mg [2, 6] was 29%. The change in vivo at 0.2 mg [2, 7] was 33%, the “Human Androgen Receptor Binding (%) RBA R1881 = 100” value (Human Androgen Receptor) was 61% and the “% Inhibition Lev.Ani” value ([3]; s.c (marked in prostate cell)) was 14%. For the same compound, the “% Inhibition Prostate” value ([3]; s.c) was 36 s.c %.
In the case of `Cc1cc(CN2CCOCC2)ccc1OCCCN1C(=S)N(c2ccc(C#N)c(Cl)c2C)C(=O)C1(C)C` [EM-8255], the “Shionogi Antiandrogenic Activity IC50” value ([1]; Table 3) is reported as “Partial agonist”, the change in vivo at 0.2 mg [2, 5] is reported as 80% and the change in vivo at 0.2 mg [2, 6] is reported as 31%. For the same compound, the change in vivo at 0.2 mg [2, 7] was 32%, the “Human Androgen Receptor Binding (%) RBA R1881 = 100” value (Human Androgen Receptor) was 76% and the “% Inhibition Prostate” value ([3]; s.c) was 17 s.c %.
With `Cc1c(N2C(=O)C(C)(C)N(CCCOc3ccc(S(C)(=O)=O)cc3)C2=S)ccc(C#N)c1Cl` [EM-8260, 4-(3-{3-[4-(1-methylsulfonyl)-phenoxy]-propyl}-4,4-dimethyl-5-oxo-2-thioxo-imidazolidin-1-yl)-2-chloro-3-methyl-benzonitrile] the “Shionogi Antiandrogenic Activity IC50” value ([1]; Table 3) was “Partial agonist”, the change in vivo at 0.2 mg [2, 8] was 74% and the change in vivo at 0.2 mg [2, 9] was 28%. The change in vivo at 0.2 mg [2, 10] was 27%, the “Human Androgen Receptor Binding (%) RBA R1881 = 100” value (Human Androgen Receptor) was 17% and the “% Inhibition Lev.Ani” value ([3]; p.o (marked in prostate cell)) was 24%. The “% Inhibition SV” value ([3]; p.o (marked in prostate cell)) was 54% and the “% Inhibition Prostate” value ([3]; p.o) was 40 p.o %.
In the case of `CCS(=O)(=O)c1ccc(OCCCN2C(=S)N(c3ccc(C#N)c(Cl)c3C)C(=O)C2(C)C)cc1` [EM-8261], the “Shionogi Antiandrogenic Activity IC50” value ([1]; Table 3) is reported as “Partial agonist”, the change in vivo at 0.2 mg [2, 8] is reported as 82% and the change in vivo at 0.2 mg [2, 9] is reported as 26%. The change in vivo at 0.2 mg [2, 10] was 41%, the “Human Androgen Receptor Binding (%) RBA R1881 = 100” value (Human Androgen Receptor) was 32% and the “% Inhibition Lev.Ani” value ([3]; p.o (marked in prostate cell)) was 8%. For the same compound, the “% Inhibition SV” value ([3]; p.o (marked in prostate cell)) was 25% and the “% Inhibition Prostate” value ([3]; p.o) was 38 p.o %.
With `CCC(c1ccc(OCCCN2C(=S)N(c3ccc(C#N)c(Cl)c3C)C(=O)C2(C)C)cc1)N(C)C` (centres unmarked) [EM-8345] the “Shionogi Antiandrogenic Activity IC50” value ([1]; Table 3) was “Partial agonist”, the change in vivo at 0.2 mg [2, 8] was 77% and the change in vivo at 0.2 mg [2, 9] was 18%. For the same compound, the change in vivo at 0.2 mg [2, 10] was 42% and the “Human Androgen Receptor Binding (%) RBA R1881 = 100” value (Human Androgen Receptor) was 68%.
With `Cc1c(N2C(=O)C(C)(C)N(CCCOc3ccc(-n4ccnc4)cc3)C2=S)ccc(C#N)c1Cl` [EM-8346] the “Shionogi Antiandrogenic Activity IC50” value ([1]; Table 3) was “Partial agonist”, the change in vivo at 0.2 mg [2, 8] was 128% and the change in vivo at 0.2 mg [2, 9] was 40%. The change in vivo at 0.2 mg [2, 10] was 47% and the “Human Androgen Receptor Binding (%) RBA R1881 = 100” value (Human Androgen Receptor) was 125%.
With `CC(=O)Nc1ccc(OCCCN2C(=S)N(c3ccc(C#N)c(Cl)c3C)C(=O)C2(C)C)cc1` [EM-8362] the “Shionogi Antiandrogenic Activity IC50” value ([1]; Table 3) was “Partial agonist”, the change in vivo at 0.2 mg [2, 8] was 105% and the change in vivo at 0.2 mg [2, 9] was 43%. The change in vivo at 0.2 mg [2, 10] was 33% and the “Human Androgen Receptor Binding (%) RBA R1881 = 100” value (Human Androgen Receptor) was 66%.
For `Cc1c(N2C(=O)C(C)(C)N(CCCOc3ccc(S(=O)(=O)C(C)C)cc3)C2=S)ccc(C#N)c1Cl` [EM-8363], the “Shionogi Antiandrogenic Activity IC50” value ([1]; Table 3) was “Partial agonist”, the change in vivo at 0.2 mg [2, 8] was 85% and the change in vivo at 0.2 mg [2, 9] was 24%. For the same compound, the change in vivo at 0.2 mg [2, 10] was 29% and the “Human Androgen Receptor Binding (%) RBA R1881 = 100” value (Human Androgen Receptor) was 52%.
`C[C@]12CC[C@H]3[C@@H](CCC4=CC(=O)CC[C@@]43C)[C@@H]1CC[C@@H]2O` [Testo, reference compound] was tested, and the IC50 ([1]; Table 3, read-out: Shionogi Antiandrogenic Activity IC50) was 23 to 107 nM, the “% Stimulation Lev.Ani” value [2, 11] was 171% and the “% Stimulation Prostate” value [2, 11] was 99%. For the same compound, the “% Stimulation SV” value [2, 11] was 115%.

Reference: patent US7709516B2, “Helix 12 directed non-steroidal antiandrogens” (Endorecherche, Inc., priority 2005, dated 2010)
